Measurements taken from patent US8193372B2, “Phosphothiophene and phosphothiazole HCV polymerase inhibitors” (Idenix Pharmaceuticals, Inc., priority 2009, dated 2012).

How the values were obtained:
[1] = Cytotoxicity (CC50) reported with the HCV replicon ELISA assay; settings: human
[2] = system: HCV Con1 subgenomic replicon of genotype 1b (GS4.1 cells); assay: microbe, parasite or virus in culture; assay type: cell-based, HCV genotype 1b; settings: Hepatitis C virus; for EC50: 72 h
[3] = in vitro; settings: human
[4] = system: Huh-7-derived cell line (Zluc) that harbors an HCV genotype 1b replicon and a luciferase reporter gene; assay: microbe, parasite or virus in culture; assay type: cell-based; settings: Hepatitis C virus, 72 h
[5] = system: Huh-7-derived cell line (Zluc) that harbors an HCV genotype 1b replicon and a luciferase reporter gene; assay: microbe, parasite or virus in culture; assay type: cell-based; settings: Hepatitis C virus, 72 h; remark: listed apart in the source

SMILES	CC50 at 72 hr [1] [µM]	IC50 [2] [nM]	EC50 [2] [µM]	CC50 [3] [µM]	EC50 [4] [nM]	EC50 [5] [µM]
Cc1ccc(P(=O)(O)Nc2cc(-c3ccc(F)cc3)sc2C(=O)O)c(C)c1 [Compound 1]	> 8.3	100 to 8300	> 8.3			
CCOP(=O)(Nc1cc(-c2ccc(-c3cc4ncccn4n3)cc2)sc1C(=O)O)c1ccc(Cl)cc1Cl (stereo not drawn) [Compound 11, 3-N-[(2,4-dichloro-phenyl)-phosphonamidateethyl ester]-5-(4-pyrazolo[1,5-a]pyrimidin-2-ylphenyl)-2-thiophenecarboxylic acid]		< 100	< 0.1	> 8.3	< 100	0.1 to 8.3
COP(=O)(Nc1cc(-c2ccc(F)cc2)sc1C(=O)O)c1ccc(C)cc1C (stereo not drawn) [Compound 21, 2-Thiophenecarboxylic acid, 3-N-[(2,4-dimethyl-phenyl)-phosphonamidatemethyl ester]-5-(4-fluorophenyl)]		100 to 8300	0.1 to 8.3	> 8.3	100 to 8300	> 8.3
CCOP(=O)(Nc1cc(-c2ccc(C#Cc3cscn3)cc2)sc1C(=O)O)c1ccc(Cl)cc1Cl (stereo not drawn) [Compound 24, 3-N-[(2,4-dichloro-phenyl)-phosphonamidateethyl ester]-5-(4-phenyl-ethynyl-1,3-thiazole)-2-thiophenecarboxylic acid]		< 100	0.1 to 8.3	> 8.3	100 to 8300	0.1 to 8.3
COP(=O)(c1ccc(C)cc1C)N(C)c1cc(-c2ccc(F)cc2)sc1C(=O)O (stereo not drawn) [Compound 32, 2-Thiophenecarboxylic acid, 3-N-methyl-N-[(2,4-dimethyl-phenyl)-phosphonamidatemethyl ester]-5-(4-fluorophenyl)]		100 to 8300	0.1 to 8.3	> 8.3	100 to 8300	> 8.3
Cc1ccc(P(=O)(Nc2cc(-c3ccc(Cl)cc3)sc2C(=O)O)OCCC(C)C)c(C)c1 (stereo not drawn) [Compound 81]	> 8.3	100 to 8300	0.1 to 8.3			
Cc1ccc(P(=O)(Nc2cc(-c3ccc(Cl)cc3)sc2C(=O)O)OCC2CCOCC2)c(C)c1 (stereo not drawn) [Compound 84]	> 8.3	100 to 8300	0.1 to 8.3			
COCCOP(=O)(Nc1cc(-c2ccc(Cl)cc2)sc1C(=O)O)c1ccc(C)cc1C (stereo not drawn) [Compound 85]	> 8.3	100 to 8300	0.1 to 8.3			
Cc1ccc(P(=O)(Nc2cc(-c3ccc(Cl)cc3)sc2C(=O)O)OCC(C)C)c(C)c1 (stereo not drawn) [Compound 86]	> 8.3	100 to 8300	0.1 to 8.3			
Cc1ccc(P(=O)(Nc2cc(-c3ccc(Cl)cc3)sc2C(=O)O)OCCC(C)(C)C)c(C)c1 (stereo not drawn) [Compound 90]	> 8.3	100 to 8300	0.1 to 8.3			
Cc1ccc(P(=O)(Nc2cc(-c3ccc(Cl)cc3)sc2C(=O)O)OCC2CC2)c(C)c1 (stereo not drawn) [Compound 91]	> 8.3	100 to 8300	0.1 to 8.3			
Cc1ccc(P(=O)(Nc2cc(-c3ccc(Cl)cc3)sc2C(=O)O)OCCc2ccc(F)cc2)c(C)c1 (stereo not drawn) [Compound 92]	> 8.3	100 to 8300	0.1 to 8.3			
Cc1ccc(P(=O)(Nc2cc(-c3ccc(Cl)cc3)sc2C(=O)O)OCc2cc3ccccc3o2)c(C)c1 (stereo not drawn) [Compound 93]	> 8.3	100 to 8300	0.1 to 8.3			
Cc1ccc(P(=O)(Nc2cc(-c3ccc(Cl)cc3)sc2C(=O)O)OC2CCOC2)c(C)c1 (stereo not drawn) [Compound 94]	> 8.3	100 to 8300	0.1 to 8.3			
COC1CCC(OP(=O)(Nc2cc(-c3ccc(Cl)cc3)sc2C(=O)O)c2ccc(C)cc2C)CC1 (stereo not drawn) [Compound 95]	> 8.3	100 to 8300	0.1 to 8.3			
Cc1ccc(P(=O)(Nc2cc(-c3ccc(Cl)cc3)sc2C(=O)O)OCc2ccccc2)c(C)c1 (stereo not drawn) [Compound 107]	> 8.3		0.1 to 8.3			
CCOCCOP(=O)(Nc1cc(-c2ccc(Cl)cc2)sc1C(=O)O)c1ccc(C)cc1C (stereo not drawn) [Compound 130]	> 8.3	100 to 8300				
Cc1ccc(P(=O)(Nc2cc(-c3ccc(Cl)cc3)sc2C(=O)O)OC2CCOCC2)c(C)c1 (stereo not drawn) [Compound 135]	> 8.3	< 100	0.1 to 8.3			
CCCCOP(=O)(Nc1cc(-c2ccc(Cl)cc2)sc1C(=O)O)c1ccc(C)cc1C (stereo not drawn) [Compound 137]	> 8.3	100 to 8300	0.1 to 8.3			
COP(=O)(Nc1cc(-c2ccc(-c3ccc(Cl)c(Cl)c3)cc2)sc1C(=O)O)c1ccc(C)cc1C (stereo not drawn) [Compound 147]		100 to 8300	0.1 to 8.3	> 8.3		
COC(=O)c1sc(-c2ccc(Br)cc2)cc1NP(=O)(OC)c1ccc(C)cc1C (stereo not drawn) [Compound 148]		> 8300	> 8.3	> 8.3		
COc1ccc(-c2cc(NP(=O)(OC)c3ccc(C)cc3C)c(C(=O)O)s2)cc1 (stereo not drawn) [Compound 149]		< 100	0.1 to 8.3	> 8.3		
CCOP(=O)(Nc1cc(-c2ccc(-c3cc4ncccc4o3)cc2)sc1C(=O)O)c1ccc(Cl)cc1Cl (stereo not drawn) [Compound 150]		< 100	< 0.1	> 8.3		
